Experimental data: patent publication US8058292B2, “Therapeutic agents useful for treating pain” (Purdue Pharma L.P., priority 2003, dated 2011)

Target: T1, rat mGluR5 (Rattus norvegicus, UniProt P31424)
T1 construct: expressed in transfected cells; host or cells: CHO cells (CHO-rat mGluR5 line, kept under Geneticin selection)
Assay: Calcium mobilization flux (FLIPR) in CHO-rat mGluR5 cells in the presence of glutamate
Format: cell-based
Details: 10 uM glutamate, Fluo 4 calcium flux, mean of 4 experiments
Description: 40,000 CHO-rat mGluR5 cells/well were plated into 96 well plate (Costar 3409, Black, clear bottom, 96 well, tissue culture treated) for an overnight incubation in Dulbecco's Modified Eagle's Medium (DMEM, pH 7.4) and supplemented with glutamine, 10% FBS, 1% Pen/Strep, and 500 ug/mL Geneticin. CHO-rat mGluR5 cells were washed and treated with Optimem medium and were incubated for 1-4 hours prior to loading cells. […]
The plates containing the CHO-rat mGluR5 cells were transferred to a FLIPR for the assessment of calcium mobilization flux in the presence of glutamate and in the presence or absence of test compounds. After monitoring fluorescence for 15 seconds to establish a baseline, DMSO solutions containing various concentrations of the test compound diluted in loading buffer (0.05 mL of 4× dilutions for the competition curves) were added to the cell plate and fluorescence was monitored for 2 minutes. […] Plate fluorescence was then monitored for an additional 60 seconds after agonist addition. […] In each experiment, fluorescence was monitored as a function of time and the data analyzed using Microsoft Excel and GraphPad Prism. […] In each experiment, each data point was determined at least two times.

T1 sequence (P31424 21-1203): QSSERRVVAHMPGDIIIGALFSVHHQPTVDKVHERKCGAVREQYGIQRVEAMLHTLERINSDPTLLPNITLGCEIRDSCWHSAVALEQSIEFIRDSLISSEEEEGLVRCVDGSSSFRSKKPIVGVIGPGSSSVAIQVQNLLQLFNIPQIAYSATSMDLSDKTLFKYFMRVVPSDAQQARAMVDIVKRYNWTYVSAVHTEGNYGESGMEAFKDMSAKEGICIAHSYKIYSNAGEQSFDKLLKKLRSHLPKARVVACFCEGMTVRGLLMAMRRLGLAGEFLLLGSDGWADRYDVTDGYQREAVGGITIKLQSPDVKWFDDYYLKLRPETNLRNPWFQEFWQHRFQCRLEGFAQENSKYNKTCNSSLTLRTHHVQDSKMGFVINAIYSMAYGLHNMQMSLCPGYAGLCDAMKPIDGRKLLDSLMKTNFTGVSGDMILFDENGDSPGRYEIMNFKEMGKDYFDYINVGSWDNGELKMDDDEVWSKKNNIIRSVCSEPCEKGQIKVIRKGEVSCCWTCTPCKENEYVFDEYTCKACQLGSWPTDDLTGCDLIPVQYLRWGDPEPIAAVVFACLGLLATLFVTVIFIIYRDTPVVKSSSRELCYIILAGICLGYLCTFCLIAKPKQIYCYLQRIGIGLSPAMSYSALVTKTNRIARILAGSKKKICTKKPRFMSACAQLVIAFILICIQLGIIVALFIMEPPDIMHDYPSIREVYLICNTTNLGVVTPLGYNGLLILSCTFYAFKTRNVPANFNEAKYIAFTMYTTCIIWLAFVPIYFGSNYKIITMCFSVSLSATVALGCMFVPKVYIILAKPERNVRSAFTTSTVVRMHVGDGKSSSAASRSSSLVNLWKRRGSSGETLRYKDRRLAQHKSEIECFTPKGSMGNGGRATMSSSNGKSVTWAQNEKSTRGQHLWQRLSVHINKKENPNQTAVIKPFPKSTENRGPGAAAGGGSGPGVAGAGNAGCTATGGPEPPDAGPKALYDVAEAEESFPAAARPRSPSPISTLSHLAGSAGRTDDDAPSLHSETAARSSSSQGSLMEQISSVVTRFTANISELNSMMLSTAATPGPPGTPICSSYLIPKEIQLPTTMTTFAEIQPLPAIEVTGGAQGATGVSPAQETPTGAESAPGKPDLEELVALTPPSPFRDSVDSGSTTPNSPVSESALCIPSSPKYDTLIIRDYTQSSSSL

**Q.** O=C(C#Cc1ccccc1)N1CC(Nc2ncccc2[N+](=O)[O-])C1 [AAB(Ib)] was tested. Which IC50 did it give?
**A.** Its IC50 is 110 ± 17.9 nM.
